In the experiment the test system is COR L88 complex tumor spheroid viability. The experiment is described as follows: Anticancer human tumor COR L88 cell line growth inhibition.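 As to all read-outs here: compound exposure lasted 7 days before viability readout.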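 As to viability, T/C: percent of DMSO vehicle-treated spheroids = 100%.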 Conditions: for viability, T/C: stronger effect = lower value. The source says:
Multicellular complex tumor spheroid response to DNA repair inhibitors in combination with DNA-damaging drugs
This study explores the anticancer activities of DNA-damaging drugs and inhibitors of DNA damage repair, both as single agents and in combinations. Complex tumor spheroids comprised of malignant cells, endothelial cells and mesenchymal stem cells served as an in vitro model for human solid tumors. This model system incorporates physiologically relevant features and patient-derived or established malignant cell lines with clinically relevant genetic alterations from many tumor types. Twenty-six patient-derived or established malignant cell lines were evaluated representing sarcoma, melanoma, small cell lung cancer (SCLC), non-small cell lung cancer (NSCLC), as well as bladder, ovarian and pancreatic cancers. The concentration ranges selected for each drug and investigational agent were based upon clinically achievable concentrations if the clinical Cmax of the agent was known.
Compounds. The drugs and compounds olaparib (NSC753686), talazoparib (NSC767125), berzosertib (NSC777718), elimusertib (NSC800525), nedisertib (NSC802822), VX-984 (NSC792969), AZD-1390 (NSC803789), temozolomide (NSC362856), topotecan (NSC609699), trabectedin (NSC813783), staurosporine (NSC755774), and gemcitabine (NSC613327) were obtained from the National Cancer Institute (NCI) Developmental Therapeutics Program Chemical Repository. The FDA-approved anticancer drug set is available from the Developmental Therapeutics Program at https://dtp.cancer.gov/organization/dscb/obtaining/available_plates.htm. […] The stock solutions were prepared in dimethyl sulfoxide (DMSO, Sigma-Aldrich, St. Louis, MO, cat. D2650) at 400-fold the tested concentration and stored at -70 degrees C. Prior to their use, the stock solutions were diluted in fresh medium and the final DMSO concentration in the assay was 0.25% (v/v). All drugs and investigational agents were tested over a range starting from a high concentration at or near the clinical Cmax and decreasing in half-log increments. If the clinical Cmax for an agent had not been determined, the highest concentration tested was 10 microM.
Cell Lines. The patient-derived cancer cell (PDC) lines: 156681-154-R-J1-PDC, 283228-195-R-J1-PDC, 287954-098-R-J1-PDC, 292921-168-R-J2-PDC, 349418-098-R-PDC, 425362-245-T-J1-PDC, 556581-035-R-J1-PDC, and BL0293-F563-PDC were received from the NCI Patient-Derived Models Repository (PDMR, https://pdmr.cancer.gov). The established cell lines HS-SY-2 (RRID:CVCL_8719), MPNST, and SYO-1 (RRID:CVCL_7146) were obtained from the Sloan Kettering Institute. The alveolar soft parts sarcoma cell line ASPS-1 (RRID:CVCL_S738) was established at the NCI and grown from internal seed stocks. The following established cell lines were purchased from the American Type Culture Collection (ATCC, Manassas, VA): G-401 (ATCC, cat. CRL-1441, RRID:CVCL_0270), SW982 (ATCC, cat. HTB-93, RRID:CVCL_1734), VA-ES-BJ (ATCC, cat. CRL-2138, RRID:CVCL_1785), NCI-H719 (ATCC, cat. CRL-5837, RRID:CVCL_1582), NCI-H196 (ATCC, cat. CRL-5823, RRID:CVCL_1509), NCI-H841 (ATCC, cat. CRL-5845, RRID:CVCL_1595), NCI-H1618 (ATCC, cat. CRL-5879, RRID:CVCL_1480), NCI-H1876 (ATCC, cat. CRL-5902, RRID:CVCL_1503), DMS 114 (ATCC, cat. CRL-2066; RRID:CVCL_1174), NCI-H211 (ATCC, cat. CRL-5824; RRID:CVCL_1529), and SW 1271 (ATCC, cat. CRL-2177, RRID:CVCL_1716). The small cell lung cancer cell line COR-L88 was purchased from Sigma-Aldrich (cat. 92031917-1VL, RRID:CVCL_1141). The non-small cell lung cancer cell lines NCI-H226 (RRID:CVCL_1544) and NCI-H322M (RRID:CVCL_1557) were established at the NCI and grown from internal seed stocks. Pooled donor human umbilical vein endothelial cells (HUVEC, Lonza, cat. CC-2519) and human mesenchymal stem cells (hMSC, Lonza, cat. PT-2501) were purchased from Lonza (Walkersville, MD).
Cell Culture. All cells were maintained in an incubator at 37 degrees C and 5% CO2 with 95% humidity. […]

Where [1] appears, read: curve of first compound, second compound 1 µM.
The mark [2] stands for this setting: curve of first compound, second compound 3.16 µM.
Setting [3] is: curve of first compound, second compound 10 µM.
[4] abbreviates: curve of first compound, second compound 31.6 µM.
The mark [5] stands for this setting: curve of first compound, second compound 100 µM.

Molecules are shown by their SMILES. Where “and” joins values, the source holds several entries; their conditions need not be identical. Identical values can stand only once.

As a reminder, the IC50 is the concentration that inhibits the measured activity by half. As a reminder, the viability, T/C is the result in the treated group divided by that in the control group, in per cent.

As for `[2H]c1nc(C)nc([2H])c1-c1cc(NC[C@@H](C)c2cccc3c(C(=O)NC)ccnc23)ncn1` + Cn1nnc2c(C(N)=O)ncn2c1=O, the concentration for half-maximal inhibition (IC50) reads like this: under setting [1], > 10000 nM; under setting [2], > 10000 nM; under setting [3], > 10000 nM; under setting [4], > 10000 nM; under setting [5], > 10000 nM. For the same compound, the viability, T/C (second compound 1 µM, first compound 0.0316 µM) was 97.1%; the viability, T/C (second compound 1 µM, first compound 0.1 µM) is 98.5%; the viability, T/C (second compound 1 µM, first compound 0.316 µM) is 89.8%; the viability, T/C (second compound 1 µM, first compound 1 µM) was 93.3%; the viability, T/C (second compound 1 µM, first compound 3.16 µM) is 96%; the viability, T/C (second compound 1 µM, first compound 10 µM) was 97%. Moreover, the viability, T/C runs as follows: (second compound 3.16 µM, first compound 0.0316 µM) 94.5%; (second compound 3.16 µM, first compound 0.1 µM) 95.3%; (second compound 3.16 µM, first compound 0.316 µM) 105%; (second compound 3.16 µM, first compound 1 µM) 98.6%; (second compound 3.16 µM, first compound 3.16 µM) 102%; (second compound 3.16 µM, first compound 10 µM) 103%. Further, the viability, T/C reads like this: (second compound 10 µM, first compound 0.0316 µM) 92.2%; (second compound 10 µM, first compound 0.1 µM) 93.3%; (second compound 10 µM, first compound 0.316 µM) 97.7%; (second compound 10 µM, first compound 1 µM) 88.7%; (second compound 10 µM, first compound 3.16 µM) 88.9%; (second compound 10 µM, first compound 10 µM) 98.7%. For the same compound, the viability, T/C was 80% (second compound 31.6 µM, first compound 0.0316 µM); 85.6% (second compound 31.6 µM, first compound 0.1 µM); 75.9% (second compound 31.6 µM, first compound 0.316 µM); 82.4% (second compound 31.6 µM, first compound 1 µM); 82.2% (second compound 31.6 µM, first compound 3.16 µM); 75.8% (second compound 31.6 µM, first compound 10 µM). Moreover, the viability, T/C (second compound 100 µM, first compound 0.0316 µM) is 66%; the viability, T/C (second compound 100 µM, first compound 0.1 µM) is 66.6%; the viability, T/C (second compound 100 µM, first compound 0.316 µM) was 63.7%; the viability, T/C (second compound 100 µM, first compound 1 µM) was 69.5%; the viability, T/C (second compound 100 µM, first compound 3.16 µM) is 64.2%; the viability, T/C (second compound 100 µM, first compound 10 µM) was 65.8%.

Take `Cn1ncnc1[C@H]1c2n[nH]c(=O)c3cc(F)cc(c23)N[C@@H]1c1ccc(F)cc1` + Cn1nnc2c(C(N)=O)ncn2c1=O: the IC50 under setting [1] turned out to be 205 nM; the IC50 under setting [2] is 124 nM; the concentration for half-maximal inhibition (IC50) under setting [3] was 57.7 nM; the 50% inhibitory concentration (IC50) under setting [4] is < 9.49 nM; the IC50 under setting [5] was < 9.49 nM. For the same compound, the viability, T/C (second compound 1 µM, first compound 0.00949 µM) is 79.6%; the viability, T/C (second compound 1 µM, first compound 0.03 µM) was 74%; the viability, T/C (second compound 1 µM, first compound 0.0949 µM) was 58.4%; the viability, T/C (second compound 1 µM, first compound 0.3 µM) was 45.8%; the viability, T/C (second compound 1 µM, first compound 0.949 µM) is 39.8%; the viability, T/C (second compound 1 µM, first compound 3 µM) is 36.3%. The viability, T/C by setting is: (second compound 3.16 µM, first compound 0.00949 µM) 79.4%; (second compound 3.16 µM, first compound 0.03 µM) 65.2%; (second compound 3.16 µM, first compound 0.0949 µM) 51.1%; (second compound 3.16 µM, first compound 0.3 µM) 45.3%; (second compound 3.16 µM, first compound 0.949 µM) 38.5%; (second compound 3.16 µM, first compound 3 µM) 39.1%. In addition, the viability, T/C (second compound 10 µM, first compound 0.00949 µM) was 58.6%; the viability, T/C (second compound 10 µM, first compound 0.03 µM) was 54.8%; the viability, T/C (second compound 10 µM, first compound 0.0949 µM) was 45.9%; the viability, T/C (second compound 10 µM, first compound 0.3 µM) is 43.1%; the viability, T/C (second compound 10 µM, first compound 0.949 µM) is 40.8%; the viability, T/C (second compound 10 µM, first compound 3 µM) was 36.3%. The viability, T/C is, setting by setting: (second compound 31.6 µM, first compound 0.00949 µM) 50.2%; (second compound 31.6 µM, first compound 0.03 µM) 46.1%; (second compound 31.6 µM, first compound 0.0949 µM) 44.2%; (second compound 31.6 µM, first compound 0.3 µM) 39.4%; (second compound 31.6 µM, first compound 0.949 µM) 38.9%; (second compound 31.6 µM, first compound 3 µM) 30.1%. In addition, the viability, T/C reads like this: (second compound 100 µM, first compound 0.00949 µM) 44.4%; (second compound 100 µM, first compound 0.03 µM) 41.8%; (second compound 100 µM, first compound 0.0949 µM) 35.1%; (second compound 100 µM, first compound 0.3 µM) 35.1%; (second compound 100 µM, first compound 0.949 µM) 32.6%; (second compound 100 µM, first compound 3 µM) 33.3%.

As to `Cn1ncnc1[C@H]1c2n[nH]c(=O)c3cc(F)cc(c23)N[C@@H]1c1ccc(F)cc1`, the viability, T/C runs as follows: (compound 0.00949 µM) 88.5% and 92.9% and 87.1%; (compound 0.03 µM) 79.6% and 66.2% and 79.5%; (compound 0.0949 µM) 66.9% and 62.7% and 56%; (compound 0.3 µM) 59.6% and 54.9% and 49.2%; (compound 0.949 µM) 43.3% and 45% and 39.5%; (compound 3 µM) 43.6% and 37.6% and 40.6%. The IC50 (curve of compound) was 665 nM and 353 nM and 293 nM.

As for `[2H]c1nc(C)nc([2H])c1-c1cc(NC[C@@H](C)c2cccc3c(C(=O)NC)ccnc23)ncn1`, the viability, T/C reads like this: (compound 0.0316 µM) 101% and 94.7% and 105%; (compound 0.1 µM) 99.9% and 96.5% and 98.1%; (compound 0.316 µM) 109% and 101% and 102%; (compound 1 µM) 88.5% and 106% and 102%; (compound 3.16 µM) 92.1% and 95.2% and 96.4%; (compound 10 µM) 91.8% and 97.2% and 103%. Besides, under “curve of compound”, the IC50 was > 10000 nM.

These data come from PubChem BioAssay AID1845201 (Molecular Pharmacology Branch, DTP, NCI, 2023).
